Patent publication US11073508B2, “Rapid conductance based ion channel analysis” (Arizona Board of Regents on Behalf of the University of …, priority 2017, dated 2021)

Experiments:
Format in all cases: biochemical
[1] = system: Gramicidin A (gA) channels in DPhPC BLM; assay: Fast solution exchange with gA-functionalized BLMs, conductance protocol F (Example 1); settings: gA-functionalized BLM on 3 μm aperture pipette; Ca^2+ switched from 0 to 1 M
Procedure: (§1) All electrophysiological measurements were performed using a HEKA Electronik EPC-10 Double patch clamp amplifier (Germany) using PatchMaster software (v2.73). Data were digitized at 20 kHz and filtered at 1 kHz, unless otherwise specified. BLM conductance was measured using several multi-step voltage protocols. All protocols were evaluated against a 21-point reference protocol that applied 50 ms potential pulses ranging from −100 to +100 mV, in 10 mV intervals. Each pulse was preceded by a 10 ms rest at a holding potential of 0 mV and followed by a 1000 ms rest to ensure the bilayer capacitance was fully discharged before proceeding to the next potential step. The slope of the i-V curve is the BLM conductance, GBLM (pA/mV), and the resistance, RBLM, is (GBLM)^−1.
A 1 mg/mL stock solution of gA in EtOH was prepared and stored at 4° C. for up to two weeks. […]
A dual-port perfusion apparatus was fabricated from a two-barrel theta capillary. […] The 10-90% response time of the solution exchange was determined by laterally translating the theta capillary tip to alternately deliver recording buffer and Ca^2+ solution to the pipette tip, which was positioned ˜200 μm from the outlet of the theta capillary tip, while monitoring the change in current through the pipette aperture at a holding potential of −20 mV. […]

[2] = system: Gramicidin A (gA) channels in DPhPC BLM; assay: High speed solution exchange with gA-functionalized BLM, sub-ms conductance protocol (Example 2); settings: recording buffer switched to recording buffer + 1 M Ca^2+, 0.9 ms protocol, 10 kHz filter
Text: Electrophysiological data was acquired with a HEKA EPC-10 Single patch clamp amplifier and digitized with Patchmaster software (v. 2.73). Single channel recordings were obtained at a −100 mV holding voltage, digitized at 20 kHz and filtered at 1 kHz, unless otherwise stated. Sub-millisecond conductance measurements were collected at 200 kHz and filtered at 10 kHz. Noise values were obtained from the Noise Panel present in Patchmaster software which measures instrument noise through the amplifier's 4-pole, low-pass Bessel filter.
Membrane conductance values were evaluated against a 21-point reference protocol that applied a 50 ms voltage pulses ranging from −100 to +100 mV, in 10 mV intervals. Each pulse was preceded by a 10 ms rest at a holding voltage of 0 mV and followed by a 1000 ms rest (0 mV) to ensure the bilayer capacitance was fully discharged before proceeding to the next voltage step. […]
Fast solution switching experiments were performed with a High Speed Solution Exchange-2/3 system (ALA Scientific, New York), A BLM pipette was positioned about 1 mm away and equidistant from the outflow of two tubes approximately perpendicular from one another. […] The solution composition perfusing across the BLM pipette was rapidly switched using a solenoid pinch valve and the membrane conductance was measured using the patch clamp amplifier. Membrane conductance was assessed as described above. […]

[3] = Single channel recording of gA in DPhPC BLM
Procedure: as §1
A 1 mg/mL stock solution of gA in EtOH was prepared and stored at 4° C. for up to two weeks. For use, the solution was diluted to 1 μg/mL in EtOH and 0.5-1 μL aliquots were injected into the bath solution at a position ca. 5 mm from the pipette tip while monitoring current at a holding potential of −100 mV. […]
Gramicidin A dimerizes in lipid bilayers to form non-selective, cation-permeable ICs and is widely used as a model IC for illustrating BLM formation. […] The conductance of the BLM was measured using protocols A and E with recording buffer on both sides of the membrane. […]

| Compound | decrease in normalized BLM conductance using the mean of a 1 s window before and after solution exchange [1] [%] | decrease in membrane conductance upon application of 1 M Ca^2+ [2] [%] | increase in membrane conductance by an individual gA ion channel ([3]; 1 M KCl solutions) [fA/mV] | current contributed by each gA channel ([3]; holding potential −100 mV, recording buffer 1 M KCl on both sides, DPhPC BLM, 3 μm aperture) [pA] |
| --- | --- | --- | --- | --- |
| [Ca+2].[Cl-].[Cl-] [Ca^2+, CaCl2] | 81.9±13.5 | ~60 |  |  |
| Gramicidin A [gA] |  |  | ~20 | ~2 |
